Laboratory results as given in patent US8034831B2, “Methods for the treatment and management of myeloproliferative diseases using 4-(amino)-2-(2,6-Dioxo(3-piperidyl)-isoindoline-1,3-dione in combination with other therapies” (Celgene Corporation, priority 2002, dated 2011).

Tested on: myeloproliferative diseases
Assay: Treatment of patients with myeloproliferative diseases
Assay type: in vivo, human
Conditions: for clinical outcome of therapy (spleen, blood counts, constitutional symptoms): therapy with the JAK or HDAC inhibitor, patients
Protocol: 4-(Amino)-2-(2,6-dioxo(3-piperidyl))-isoindoline-1,3-dione (Pomalidomide or Actimid™) is orally administered to patients with myeloproliferative diseases in an amount of 0.1 to 10 mg per day in combination with prednisone, JAK1 inhibitor (e.g., INCB018424), JAK2 inhibitor (e.g., SB11518, XL019, TG101348, and INCB018424), FLT3 inhibitor (e.g., TG101348), BCL2 inhibitor (e.g., GX15-070MS) and/or HDAC inhibitor (e.g., ITF2357).

Structure (SMILES)	efficacy in treating myeloproliferative diseases (oral, 0.1 to 10 mg per day, in combination with prednisone, JAK1, JAK2, FLT3, BCL2 and/or HDAC inhibitor)	clinical outcome of therapy (spleen, blood counts, constitutional symptoms)
Nc1cccc2c1C(=O)N(C1CCC(=O)NC1=O)C2=O (stereo not shown) [4-(Amino)-2-(2,6-dioxo(3-piperidyl))-isoindoline-1,3-dione]	effective in treating myeloproliferative diseases	–
N#CC[C@H](C1CCCC1)n1cc(-c2ncnc3[nH]ccc23)cn1 [INCB018424]	–	dramatic spleen shrinkage and improvement in constitutional symptoms
CCN(CC)Cc1ccc2cc(COC(=O)Nc3ccc(C(=O)NO)cc3)ccc2c1 [ITF2357]	–	improvement in constitutional symptoms, spleen size and some hematologic responses
O=C(Nc1ccc(-c2ccnc(Nc3ccc(N4CCOCC4)cc3)n2)cc1)C1CCCN1 (stereo not shown) [XL019]	–	reductions in splenomegaly and leukocytosis, stabilization of hemoglobin counts, improvements in blast counts, and resolution or improvement in generalized constitutional symptoms
